Entries after “also recorded” stand apart in the source; their conditions may differ.
System: nascent protein synthesis in HEK293T cells
Experiment: BONCAT: azidohomoalanine incorporation, TAMRA alkyne click, in-gel fluorescence
Format: cell-based, human
Text: Biochemical integrity and robust orthogonality of asKDM4-NOL pairs in cells strongly argue for their applicability in elucidating the regulatory functions of KDM4 members in cellular processes. […] To investigate the role of KDM4A in protein synthesis, we adapted the bioorthogonal noncanonical amino acid tagging (BONCAT) tactic which relies on the translational incorporation of an unnatural amino acid probe into newly synthesized proteins in cells (Figure 5A).[28] HEK293T cells expressing wild type KDM4A or its F185A mutant were treated with n-octyl IOX1 or 6A, and the synthesis of nascent proteins was tracked by pulsing the cells with azidohomoalanine (AHA). Isolated cellular extracts were subjected to copper-catalyzed click ligation with TAMRA alkyne,[50] separated on polyacrylamide gel and visualized at 532 nm light (lmax for TAMRA) to assess AHA incorporation. Overexpression of wild type KDM4A and the as variant (F185A) increased the amount of newly synthesized proteins compared to control vector-transfected cells (Figure 5B). […]
Millipore Ltd.) membrane was cut to size, activated with MeOH for 30 seconds and incubated in 10X SSC buffer for 5 minutes while shaking. The membrane was then placed on a 96-well Bio-Dot microfiltration apparatus (Bio-Rad), washed with 100µL of 10X SSC buffer and the RNA solution was applied, and vacuum filtered. Sample was then rinsed with 100µL of 10X SSC buffer.
The membrane was dried at 37 °C followed by crosslinking for 5 minutes with UV light at 254nm.
Membrane was then subject to the protocol mentioned in the section General Protocol for Western […]
16. Incorporation of Azidohomoalanine in HEK293T cells
HEK293T cells were passaged into a 6 well plate. The cells were grown overnight then transfected with 3 ug of indicated plasmid, KDM4A WT/F185A or KDM4D WT/F189A expression vector, […]
and 6 ug of Thermo Turbofect (FERR0531). KDM4A siRNA was transfected into cells using 10nM siRNA (Thermo 4392420) with 1:2 ug amount of Thermo Turbofect (FERR0531). Cells were washed 4 hours later and fresh DMEM was applied. The next day, the cells were treated with inhibitor (L-leucine NOG) and grown for 24 hours. […] The lysate was quantified with Bradford dye and 40 ug of lysate was incubated with 1 mM Tris[(1-benzyl-1H-1,2,3-triazol-4-yl)methyl]amine (TBTA […]
For analysis of AHA incorporation measured by fixed cell imaging, HEK293-T cells (ATCC CRL-1573) were grown in a 24 well plate (Corning) on poly-D-lysine (Gibco A3890401) treated glass coverslips (ThermoScientific 12-545-81P) overnight and transfected the next day with 500 ng KDM4A WT/F185A or Empty Vector (EV) equivalent using 1:2 ug of Thermo Turbofect (FERR0531). […]

Row | Compound | nascent protein synthesis (TAMRA in-gel fluorescence) (HEK293T cells expressing F185A, 6A) | nascent protein synthesis (TAMRA in-gel fluorescence) (HEK293T cells, endogenous wild type KDM4A, 200 μM 6A) | nascent protein synthesis (TAMRA in-gel fluorescence) (HEK293T cells expressing wild type KDM4A, n-octyl IOX1) | nascent protein synthesis (TAMRA in-gel fluorescence) (HEK293T cells, endogenous KDM4A, 10 μM n-octyl IOX1)
1 | CCCCCCCCOC(=O)C(=O)NC(CC(C)C)C(=O)O [6A, L-Leu octyl-ester NOG] | sharp decline in protein synthesis; also recorded: subsequently inhibited | no effect on protein synthesis; also recorded: failed to inhibit protein synthesis | – | –
2 | CCCCCCCCOC(=O)c1ccc(O)c2ncccc12 [n-octyl IOX1] | – | – | sharp decline in protein synthesis; also recorded: subsequently inhibited | protein synthesis inhibition

Reference: publication PMC11783601, “Analogue-Sensitive Inhibition of Histone Demethylases Uncovers Member-Specific Function in Ribosomal Protein Synthesis” (Journal of the American Chemical Society, 2025)
